Assay results as given in patent US8852554B2, “Radiolabelled PDE10 ligands” (Janssen Pharmaceutica NV, priority 2009, dated 2014).
Where “and” joins values, the source holds several entries; their conditions need not be identical. Equal values may be shown once.

Assay: Biodistribution studies of the 18F tracers in rats
Assay type: in vivo, male Wistar rats
Details: rat
Method: Biodistribution studies were carried out in healthy male Wister rats (body weight 200-500 g) at 2 min, 30 min and 60 min post injection (p.i.) (n=3/time point). For |^18F|B-4 only the 2 min and 30 min time points were studied. […] Blood and major organs were collected in tared tubes and weighed. The radioactivity in blood, organs and other body parts was measured using an automated gamma counter. The distribution of radioactivity in different parts of the body at different time points p.i. of the tracer was calculated and expressed as percentage of injected dose (% ID), and as percentage of injected dose per gram tissue (% ID/g) for the selected organs. % ID is calculated as cpm in organ/total cpm recovered. For calculation of total radioactivity in blood, blood mass was assumed to be 7% of the body mass.

retention in the PDE10A-rich region striatum (biodistribution studies): retention
% ID, Blood (i.v., 2 min p.i.): 4.55 ± 0.4 % ID
% ID, Carcass (i.v., 2 min p.i.): 36.93 ± 1.3 % ID
% ID, Cerebellum (i.v., 2 min p.i.): 0.07 % ID and 0.065 ± 0.011 % ID
% ID, Cerebrum total (i.v., 2 min p.i.): 0.32 % ID and 0.317 ± 0.014 % ID
% ID, Cortex (i.v., 2 min p.i.): 0.036 ± 0.007 % ID
% ID, Heart (i.v., 2 min p.i.): 0.62 ± 0.2 % ID
% ID, Hippocampus (i.v., 2 min p.i.): 0.006 ± 0.002 % ID
% ID, Intestines (i.v., 2 min p.i.): 12.02 ± 2.1 % ID
% ID, Kidneys (i.v., 2 min p.i.): 4.99 ± 0.2 % ID
% ID, Liver (i.v., 2 min p.i.): 35.98 ± 3.1 % ID
% ID, Lungs (i.v., 2 min p.i.): 1.12 ± 0.0 % ID
% ID, Rest of cerebrum (i.v., 2 min p.i.): 0.257 ± 0.014 % ID
% ID, Spleen + Pancreas (i.v., 2 min p.i.): 2.37 ± 0.2 % ID
% ID, Stomach (i.v., 2 min p.i.): 2.8 % ID and 2.80 ± 0.2 % ID
% ID, Striatum (i.v., 2 min p.i.): 0.018 ± 0.003 % ID
% ID, Urine (i.v., 2 min p.i.): 0.28 ± 0.1 % ID
% ID/g, Blood (i.v., 2 min p.i.): 0.14 ± 0.04 % ID/g
% ID/g, Cerebellum (i.v., 2 min p.i.): 0.231 ± 0.031 % ID/g
% ID/g, Cerebrum + Cerebellum (i.v., 2 min p.i.): 0.269 ± 0.066 % ID/g
% ID/g, Cerebrum total (i.v., 2 min p.i.): 0.263 ± 0.029 % ID/g
% ID/g, Cortex (i.v., 2 min p.i.): 0.355 ± 0.012 % ID/g
% ID/g, Heart (i.v., 2 min p.i.): 0.45 ± 0.13 % ID/g
% ID/g, Hippocampus (i.v., 2 min p.i.): 0.193 ± 0.031 % ID/g
% ID/g, Liver (i.v., 2 min p.i.): 2.32 ± 0.28 % ID/g
% ID/g, Lungs (i.v., 2 min p.i.): 0.46 ± 0.07 % ID/g
% ID/g, Rest of cerebrum (i.v., 2 min p.i.): 0.248 ± 0.030 % ID/g
% ID/g, Spleen + Pancreas (i.v., 2 min p.i.): 1.17 ± 0.03 % ID/g
% ID/g, Striatum (i.v., 2 min p.i.): 0.467 ± 0.002 % ID/g
Structure (SMILES): COc1ccc(COc2ccc(-c3nn(CC[18F])cc3-c3ccncc3)cc2)nc1 [[^18F]B-4]
Clearance, 2 min/30 min ratio of % ID/g (normalized for body weight), Blood (i.v.): 1.36
Clearance, 2 min/30 min ratio of % ID/g (normalized for body weight), Cerebellum (i.v.): 3.82
Clearance, 2 min/30 min ratio of % ID/g (normalized for body weight), Cerebrum total (i.v.): 2.90
Clearance, 2 min/30 min ratio of % ID/g (normalized for body weight), Cortex (i.v.): 4.24
Clearance, 2 min/30 min ratio of % ID/g (normalized for body weight), Hippocampus (i.v.): 3.08
Clearance, 2 min/30 min ratio of % ID/g (normalized for body weight), Rest of cerebrum (i.v.): 2.87
Clearance, 2 min/30 min ratio of % ID/g (normalized for body weight), Striatum (i.v.): 1.80
% ID/g normalized for body weight, Blood (i.v., 2 min p.i.): 0.07 ± 0.01 % ID/g × body wt. in kg
% ID/g normalized for body weight, Cerebellum (i.v., 2 min p.i.): 0.109 % ID/g × body wt. in kg and 0.109 ± 0.01 % ID/g × body wt. in kg
% ID/g normalized for body weight, Cerebrum + Cerebellum (i.v., 2 min p.i.): 0.13 ± 0.01 % ID/g × body wt. in kg
% ID/g normalized for body weight, Cerebrum total (i.v., 2 min p.i.): 0.124 ± 0.01 % ID/g × body wt. in kg
% ID/g normalized for body weight, Cortex (i.v., 2 min p.i.): 0.168 % ID/g × body wt. in kg and 0.168 ± 0.00 % ID/g × body wt. in kg
% ID/g normalized for body weight, Heart (i.v., 2 min p.i.): 0.21 ± 0.06 % ID/g × body wt. in kg
% ID/g normalized for body weight, Hippocampus (i.v., 2 min p.i.): 0.091 % ID/g × body wt. in kg and 0.091 ± 0.01 % ID/g × body wt. in kg
% ID/g normalized for body weight, Kidneys (i.v., 2 min p.i.): 0.63 ± 0.17 % ID/g × body wt. in kg
% ID/g normalized for body weight, Liver (i.v., 2 min p.i.): 1.09 ± 0.08 % ID/g × body wt. in kg
% ID/g normalized for body weight, Lungs (i.v., 2 min p.i.): 0.22 ± 0.03 % ID/g × body wt. in kg
% ID/g normalized for body weight, Rest of cerebrum (i.v., 2 min p.i.): 0.117 ± 0.01 % ID/g × body wt. in kg
% ID/g normalized for body weight, Spleen + Pancreas (i.v., 2 min p.i.): 0.55 ± 0.03 % ID/g × body wt. in kg
% ID/g normalized for body weight, Striatum (i.v., 2 min p.i.): 0.226 % ID/g × body wt. in kg and 0.226 ± 0.01 % ID/g × body wt. in kg
striatum/blood ratio (from % ID/g normalized for body weight) (i.v., 2 min p.i.): 3.47
striatum/cortex ratio (from % ID/g normalized for body weight) (i.v., 2 min p.i.): 1.35
striatum/hippocampus ratio (from % ID/g normalized for body weight) (i.v., 2 min p.i.): 2.49
